A short description of data set [1]: Disruption of C-terminal REV-1/FAM-tagged Pol kappa RIR (unknown origin) interaction incubated for 1 hr by FP assay. Set-up: species or system Homo sapiens.
Data set [2] can be described thus: Metabolic stability in human liver microsomes assessed as half life at 1 uM incubated upto 60 mins by LC-MS/MS analysis. In kind it is ADME, Microsome. As to conditions: 1 h.
A short description of data set [3]: Metabolic stability in human liver microsomes assessed as intrinsic clearance at 1 uM incubated upto 60 mins by LC-MS/MS analysis. In kind it is ADME, Microsome. The note with it: 1 h.
Data set [4] can be described thus: Solubility of compound in PBS at pH 4. Format: physicochemical. The note with it: buffer.
Data set [5] can be described thus: Solubility of compound in PBS at pH 7.4. Format: physicochemical.
In data set [6] the target is T1, DNA repair protein REV1 (Homo sapiens) (UniProt Q9UBZ9).
T1 sequence (whole entry): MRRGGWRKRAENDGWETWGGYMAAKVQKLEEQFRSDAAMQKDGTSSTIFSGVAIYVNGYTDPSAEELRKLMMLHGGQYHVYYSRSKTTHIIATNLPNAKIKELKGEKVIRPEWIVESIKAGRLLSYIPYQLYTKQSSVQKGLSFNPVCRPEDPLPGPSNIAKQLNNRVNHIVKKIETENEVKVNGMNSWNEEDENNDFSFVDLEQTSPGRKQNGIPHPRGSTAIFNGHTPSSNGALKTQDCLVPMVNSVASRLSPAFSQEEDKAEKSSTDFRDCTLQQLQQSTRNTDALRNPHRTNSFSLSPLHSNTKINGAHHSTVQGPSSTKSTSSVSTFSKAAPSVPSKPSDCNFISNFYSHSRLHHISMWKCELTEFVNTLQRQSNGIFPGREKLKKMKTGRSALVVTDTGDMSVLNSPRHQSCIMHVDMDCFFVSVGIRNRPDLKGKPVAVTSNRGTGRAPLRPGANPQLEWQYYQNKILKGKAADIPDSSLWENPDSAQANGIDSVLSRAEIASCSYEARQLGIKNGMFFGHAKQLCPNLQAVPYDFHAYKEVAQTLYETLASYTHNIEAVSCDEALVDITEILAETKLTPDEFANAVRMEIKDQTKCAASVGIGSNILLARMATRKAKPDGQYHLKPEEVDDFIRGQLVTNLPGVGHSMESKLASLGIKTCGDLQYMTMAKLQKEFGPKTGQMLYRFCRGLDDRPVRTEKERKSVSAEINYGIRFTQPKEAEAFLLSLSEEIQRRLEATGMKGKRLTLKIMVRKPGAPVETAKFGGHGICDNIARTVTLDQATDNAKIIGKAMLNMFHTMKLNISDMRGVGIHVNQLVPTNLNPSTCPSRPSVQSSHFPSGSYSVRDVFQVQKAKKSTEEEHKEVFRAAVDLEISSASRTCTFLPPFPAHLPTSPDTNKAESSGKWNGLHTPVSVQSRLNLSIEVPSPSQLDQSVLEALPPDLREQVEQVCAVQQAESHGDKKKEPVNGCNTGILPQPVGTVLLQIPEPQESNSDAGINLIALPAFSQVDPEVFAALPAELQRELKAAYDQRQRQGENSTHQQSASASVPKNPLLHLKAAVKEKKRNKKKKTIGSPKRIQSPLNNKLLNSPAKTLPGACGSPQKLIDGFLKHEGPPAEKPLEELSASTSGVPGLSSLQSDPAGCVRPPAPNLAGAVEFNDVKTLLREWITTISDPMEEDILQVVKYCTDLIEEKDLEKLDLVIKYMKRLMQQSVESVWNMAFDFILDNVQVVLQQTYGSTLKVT
The data set is described as follows: Binding affinity to C-terminal human REV-1 incubated for 30 mins by MST assay.

The next data set addresses T2, DNA repair protein REV1 (Homo sapiens, UniProt Q9UBZ9).
T2 sequence (Q9UBZ9 whole entry): T1 sequence (whole entry)
In words: Binding affinity to C-terminal human REV-1 assessed as dissociation constant incubated for 30 mins by MST assay.

The subject of the next data set is A549. In words: Inhibition of cologenic survival in human A549 cells incubated for 8 to 10 days by crystal violet staining based analysis. In kind it is functional, cell-based. As to conditions: time 8-10 day.

From ChEMBL document CHEMBL5576054, “Lead compound profiling for small molecule inhibitors of the REV1-CT/RIR Translesion synthesis Protein-Protein interaction” (Bioorg Med Chem, 2024) come the findings set out here.

Molecules are shown by their SMILES. Converted amounts (≈) assume the structure as drawn. The source made the active and inactive calls. No cut-off for these calls is given here.

As a reminder, the IC50 is the concentration at which inhibition is half-maximal. A higher IC50 goes with weaker potency. Turning to `CCCc1cc(C(=O)OCC)c(NC(=O)c2ccccc2O)s1`, the IC50 in data set [1] stood at 16.7 µM.

On to `CCCc1cc(C(=O)OCC)c(NC(=O)C2CCN(C(C)=O)CC2)s1`, for which the half-inhibitory concentration (IC50) in data set [1] was determined as 2.9 µM. Regarding `C=CCOc1ccc(C(=O)Nc2sc(CCC)cc2C(=O)OCC)cc1`, the midpoint of inhibition in data set [1], the IC50, lay at 25.3 µM.

Consider `CCCc1cc(C(=O)OCC)c(NC(=O)C2CCCN(C(=O)OC(C)(C)C)C2)s1` (configuration not stated), for which the half-inhibitory concentration (IC50) in data set [1] stood at 2.5 µM.

For orientation: solubility means the dissolved amount per volume that the medium holds. In the case of `Cc1cccn2c(=O)c3cc(C(=O)N[C@@H](C)c4ccccc4)c(N)[n+](CCOCCO)c3nc12`, the t1/2 in data set [2] is reported as 97.6 min. In addition, the “intrinsic clearance (CLint)” value in data set [3] amounted to 14.2 µL/min/mg. Moreover, the solubility in data set [4] stood at 302 µM; in data set [5], 51.7 µM. In addition, half-maximal inhibition in data set [1] (IC50) required 1.6 µM. In data set [6], the result was inactive.

As usually defined, the Kd is the concentration at which binding is half-saturated. In the case of `Cc1cc(C)c2nc(-c3ccncc3)cc(C(=O)NCCCn3ccnc3)c2c1`, in data set [2], the t1/2 was found to be 4.7 min. Further, the “intrinsic clearance (CLint)” value in data set [3] came out at 148 µL/min/mg. Also, the results for the solubility in data set [4] and in data set [5] were 268 µM (≈ 103 µg/mL) and 146 µM (≈ 56.3 µg/mL), respectively. This molecule yielded an IC50 in data set [1] of 6.7 µM. For the same molecule, on DNA repair protein REV1, the Kd was more than 200 µM. In data set [1], `CCOC(=O)c1c(NC(=O)C2CCN(C(C)=O)CC2)sc2c1CCCC2` yielded an IC50 of 5.8 µM. `CCCc1cc(C(=O)OCC)c(NC(=O)c2ccc(O)cc2)s1` showed a half-inhibitory concentration (IC50) in data set [1] of 9.3 µM. As for `Nc1ccc(/N=N/c2ccc3ccccc3c2)c(N)n1`, in the data set with A549, the inhibition result is “Active”. For the molecule `CCCc1cc(C(=O)OC)c(NC(=O)c2ccccc2)s1`, half-maximal inhibition in data set [1] (IC50) required 4.7 µM. Still for that read-out and setting: the result for `CCCc1cc(C(=O)OCC)c(NC(=O)C2CCN(C(=O)OC(C)(C)C)CC2)s1` reads 2.3 µM. On to `CCCc1cc(C(=O)OCC)c(NC(=O)C2CCCNC2)s1` (configuration not stated), for which inhibition in data set [1] was half-maximal at 1.2 µM (IC50). Compared with the last molecule, the IC50 is about 1.9-fold lower. For the molecule `CC(=O)C(C)n1c(CN2CCN(c3cccc(Cl)c3)CC2)nc2c1c(=O)n(C)c(=O)n2C` (configuration not stated), the t1/2 in data set [2] was 3.4 min. Further, the “intrinsic clearance (CLint)” value in data set [3] stood at 202 µL/min/mg. Moreover, the solubility in data set [4] amounted to 45.5 µM (≈ 20.9 µg/mL); in data set [5], 177 µM (≈ 81.2 µg/mL). Molecule `CCCc1cc(C(=O)OCC)c(NC(=O)c2cc(O)cc(O)c2)s1` displayed a half-inhibitory concentration (IC50) in data set [1] of more than 100 µM. Take `CCCCc1ccc(-n2nnc(C(=O)N(C)C3CCS(=O)(=O)C3)c2C)cc1` (configuration not stated): the t1/2 in data set [2] was determined as 49.9 min. Moreover, in data set [3], the “intrinsic clearance (CLint)” value came to 27.8 µL/min/mg. For the same molecule, the solubility in data set [4] was 11.7 µM (≈ 4.57 µg/mL); in data set [5], 10 µM (≈ 3.91 µg/mL). Regarding `COc1ccc(OC)c(-c2csc(N3CCN(C(=O)c4ccco4)CC3)n2)c1`, the t1/2 in data set [2] is recorded as 23.6 min. For the same molecule, the “intrinsic clearance (CLint)” value in data set [3] was 58.8 µL/min/mg. The solubility in data set [4] was found to be 1.3 µM (≈ 0.519 µg/mL); in data set [5] it was 0.7 µM (≈ 0.28 µg/mL). For the same molecule, in data set [1], the midpoint of inhibition, the IC50, lay at 6.2 µM. Further, at DNA repair protein REV1, the Kd was more than 200 µM. In the case of `C=CCOc1ccccc1C(=O)Nc1sc(CCC)cc1C(=O)OCC`, it took 14.9 µM to reach half-maximal inhibition in data set [1] (IC50). The same measure, in the same setting: with `CC(=O)N1CCC(C(=O)NCCc2cccs2)CC1` the figure was more than 100 µM. Consider `C=CCOc1cccc(C(=O)Nc2sc(CCC)cc2C(=O)OCC)c1`, for which inhibition in data set [1] was half-maximal at 66.2 µM (IC50). That is a double-digit micromolar value. Turning to `Cc1ccc(/N=N/c2ccc(N)nc2N)cc1C`, the inhibition entry in the data set on A549 was “Active”.

For `CCCc1cc(C(=O)OCC)c(NC(=O)c2cccc(O)c2)s1`, in data set [1], the concentration for half-maximal inhibition (IC50) turned out to be 2.5 µM. The same measure, in the same setting: with `COC(=O)c1ccsc1NC(=O)C1CCN(C(C)=O)CC1` the figure was more than 100 µM. In the case of `Cc1ccc(C(=O)N2CCN(c3ccccc3)CC2)cc1S(=O)(=O)N1CCOCC1`, in data set [2], the t1/2 is 6.6 min. Further, the “intrinsic clearance (CLint)” value in data set [3] worked out at 210 µL/min/mg. In addition, the solubility in data set [4] came to 13.9 µM (≈ 5.97 µg/mL); in data set [5] it was 14.1 µM (≈ 6.06 µg/mL). Molecule `C=CCOc1cc(OCC=C)cc(C(=O)Nc2sc(CCC)cc2C(=O)OCC)c1` had an IC50 in data set [1] of 49.7 µM.

As to `CCCc1cc(C(=O)OCC)c(NC(=O)c2ccccc2)s1`, half-maximal inhibition in data set [1] (IC50) required 4.4 µM. This IC50 lies about 11-fold lower than the previous one. Still for that read-out and setting: the result for `CCCc1cc(C(=O)OCC)c(NC(=O)C2CCNCC2)s1` reads 3.8 µM; that for `CC(=O)N1CCC(C(=O)NCc2cccs2)CC1`, 16.4 µM. For the molecule `Nc1ccc(/N=N/c2ccc3ccccc3c2)c(N)c1`, the inhibition entry in the data set on A549 was “Active”.
